Test system: burn caused by light radiation
Experiment: Light radiation burn model, epithelization of burn wounds (regenerative activity)
Format: in vivo
Source text: The regenerative activity of the claimed compounds was studied on a model of a burn caused by light radiation on a specialized apparatus. […] Unless this medication is applied to a burn, a keloidal scar is produced on the burn area and no skin appendages are formed.

CC(C)(CO)C(O)C(=O)NCCCO (centres unmarked) [Panthenol, 2,4-dioxy-N-(3-oxypropyl)-3,3-dimethylbutyramide]
Percentage of fully epithelized burn wounds (25th day of observations): 55%
Percentage of fully epithelized burn wounds (30th day of observations): 85%
